These results are taken from a melting point compilation (Tetko et al.; mined from patent text by program, amines drawn as free bases though some values may be those of a salt).

As a reminder, the melting point is the temperature of the solid-liquid transition. Turning to `CCCCOc1c(CNC(=O)OC(C)(C)C)n(CC(C)C)c(=O)c2ccc(C(N)=NO)cc12`, the melting point lay within 209 to 210 °C.
On to `CCn1cc(C(=O)O)c(=O)c2cc(F)c(N3CCC3CN)nc21` (centres undefined), for which the melting point is 198 to 200 °C.
For `CCOC(=O)Cc1csc(NC(=O)C(CC2CCCC2)c2ccc(NC(=O)c3cccnc3)cc2)n1` (centres undefined) the value was 195 to 200 °C; for `O=C(O)c1cc(=O)c2c(O)cccc2[nH]1`, 298 to 301 °C; for `Cc1ccc(C(=O)c2c(C)cc(CC(=O)O)n2C)cc1`, 160 to 161 °C.
Take `CC12CCC(C1)C1(C)Oc3ccc(C(=O)/C=C/c4cc(C(=O)O)cs4)cc3C21C` (centres undefined): the melting point was 226 to 228 °C.
Turning to `COC(CN(C)C(=O)Nc1ccc(Oc2cccc(C(F)(F)F)c2)cc1)OC`, the melting point lay within 86 to 88 °C.
Take `CC(C)c1cccc(C(C)C)c1NC(=O)C1CC(c2ccc(F)cc2)OC1=O` (centres undefined): the melting point lay within 203 to 205 °C.
Under `CCOC(=O)C(=O)c1ccc(OCCCOc2ccc(C(C)=O)c(O)c2)cc1` stands 63 to 65 °C.
`CCOC(=O)c1nc(NC(C)=O)sc1Cc1cccc(SC)c1` registered a melting point of 188 °C.
Under `CCCCCCCCOc1ccc(-c2ccc(C(C)O)cc2)cc1` (single isomer, unassigned; (-)) stands 124 °C.
As to `C[C@@H]1CC(=O)CC(C)(C)C1=O`, the melting point was in the range of 91 to 92 °C.
In turn, `CCC1(C)C(=O)c2c(cc(O)c(Cl)c2Cl)C1c1ccccc1` (centres undefined) had a melting point of 248 °C.
Take `COc1ccc(-c2ncc(C(F)(F)F)cc2Cl)cc1`: the melting point was 71 to 72 °C.
`CCCCP(=CC#N)(CCCC)CCCC` gave a melting point of 131 to 132 °C.
`NC1=NC(c2cccc(-c3cccnc3F)c2)(c2ccc3c(c2)OCO3)C2=NCCCN12` (centres undefined) had a melting point of 106 to 119 °C.
`N#Cc1cnc(Nc2ccc(OCCn3ccnn3)cc2)nc1-c1ccccc1` displayed a melting point of 178 °C.
`CCOCCN(CC1=CCC(NC(C)=O)(Oc2ccccc2)C=C1)C(=O)C(Cl)Cl` (centres undefined) registered a melting point of 114 to 116 °C.
Turning to `CC(=S)NC[C@H]1CN(c2ccc(N3CCC(=C(C)C#N)CC3)c(F)c2)C(=O)O1`, the melting point lay in the range of 171 to 172 °C.
Take `CC(C)(C)c1cccc(S(=O)(=O)Nc2ccc(C(F)(F)F)nc2I)c1`: the melting point turned out to be 125 °C.
The compound `CCCCc1oc2ccc(C(=O)OC)cc2c1C(=O)c1ccc(OC)cc1` came in with a melting point of 75 to 78 °C.
Under `CCOC(=O)c1cccc2c1N=C(c1ccccc1)CC2=O` stands 218 to 219 °C; under `CCOc1cc2ncc(C#N)c(Nc3ccc4c(c3)NCC4)c2cc1OCC`, 121 to 124 °C.
In turn, `OC1Cc2c(I)cccc2CC1N1CCC(c2ccccc2)CC1` (centres undefined) displayed a melting point of 194 °C.
Under `CN(C)CCC(=O)Nc1cccc([N+](=O)[O-])c1` stands 80 to 81 °C; under `O=C1c2ccccc2C(O)N1c1cccc(C(F)(F)F)c1` (centres undefined), 202 °C; under `O=S1(=O)CCN2C=CC=C(c3ccc(OC4CCCC4)cc3)C2=N1`, 254 to 256 °C.
`Cc1ccccc1C(C(=O)N[C@H]1CCN(CCc2ccc(F)cc2)C1)c1ccccc1C`: the melting point lay within 108 to 110 °C.
`CCOC(=O)C1=C(C)NC(c2scnc2C)=NC1c1ccc(F)cc1Cl` (centres undefined) returned a melting point of 134 to 139 °C.
In turn, `COC=C(C(=O)OC)N(C)c1nccc(-c2ccccc2)n1` came in with a melting point of 123 to 125 °C.
As for `CC(C(=O)O)c1ccc(Oc2ccc(F)cc2)c(Cl)c1` (centres undefined), the melting point was 68 to 70 °C.
Under `CCc1nc2c(N)nc3cc(OCc4ccccc4)ccc3c2n1CCCCNS(C)(=O)=O` stands 214 to 215 °C; under `COc1cc(C(=O)C#CC(=O)OCC=C(C)C)cc(OC)c1OC`, 52 to 53 °C; under `NCCc1c[nH]c2ccc(OCCCCc3ccccc3)cc12`, 130 to 132 °C.
With `NCCc1cccc(N2C(=O)N(c3c(Cl)cccc3Cl)Cc3cnc(Nc4ccccc4)nc32)c1`, the melting point turned out to be 208 °C.
`COc1cc(NC(=O)c2ccccn2)ccc1Oc1ncccn1` had a melting point of 203 to 205 °C.
Take `O=C(Nc1ccc2nc(CN3CCCC3)ccc2c1)N1CCC(c2ccc(F)cc2)CC1`: the melting point lay within 206 to 207 °C.
As for `O=C(O)c1cc2ccoc2nc1C(=O)O`, the melting point is 189 to 192 °C.
For `Cc1cc(O)c(S(=O)C23CC4CC(CC(C4)C2)C3)c(=O)o1` (centres undefined) the value was 174 °C; for `O=c1oc(-c2ccc(Cl)c(Cl)c2)cc(O)c1SCc1ccccc1`, 185 to 186 °C.
Compound `O=C(O)Cc1c(C(=O)O)c2cc(Oc3cccc(Cl)c3)ccc2n1-c1ccccc1` displayed a melting point of 192 to 194 °C.
Compound `CC(C)(C)OC(=O)N1CCC(c2ccc3nc(-c4ccc(C(F)(F)F)cc4)oc3c2)CC1` returned a melting point of 174 to 179 °C.
In turn, `O=c1[nH]c2ccc([C@H]3CC[C@H](NCCCc4ccc(F)cc4)CC3)cc2[nH]1` displayed a melting point of 336 to 339 °C.
With `O=C(CC1CCC1)N[C@H]1CC[C@H](CCN2CCN(c3nccc4c3OCC4)CC2)CC1`, the melting point was 148 °C.
`CC(C)(C)OC(=O)N1CCC(c2cc(C(F)(F)F)ccc2N)CC1` showed a melting point of 120 °C.
The compound `O=S(=O)(c1ccccc1)n1ccc2c(OCC3CO3)cccc21` (centres undefined) displayed a melting point of 96 °C.
Compound `CCCCc1cc2c3c(c[nH]c3c1)CC1C2CC(NC(=O)c2ccccc2)CN1C` (centres undefined) returned a melting point of 143 to 145 °C.
The compound `CC(=O)N(C)c1cccc(Sc2ccc([N+](=O)[O-])cc2)c1` had a melting point of 66 to 68 °C.
For `COc1ccc(NC(=O)c2ccc(COc3ccc4c(c3)CCC(CCN3CCCCC3)C4)cc2)cc1` (centres undefined) the value was 193 to 196 °C.
Under `N#Cc1ccsc1S(N)(=O)=O` stands 152 to 155 °C; under `CC(=O)OCCCN1CCC(CNC(=O)[C@@H]2CCCN2S(=O)(=O)c2ccc(Cl)c(COc3cccc4c(-n5cncn5)cc(C)nc34)c2Cl)CC1`, 120 °C.
For `COc1cc(/C=C/C(=O)/C=C/c2cc(OC)c(OCCO)c(OC)c2)cc(OC)c1OCCO` the value was 133 to 135 °C; for `CC(=O)OC1(c2ccc(Cl)cc2)CCN(CCCC(=O)c2ccc(F)cc2)CC1`, 106 to 110 °C; for `COc1cc(CCCCCCCO)ccc1OCc1nc(-c2ccccc2)oc1C`, 78 to 79 °C.
Compound `CCOC(=O)c1cnn(-c2ccc(OCC(CC)CC)c(C#N)c2)c1` returned a melting point of 114 to 115 °C.
Under `COc1cc(C)nn1-c1ccc(Br)cc1` stands 67 to 68 °C; under `Cc1nnc(-c2cccc(I)c2)o1`, 104 to 105 °C.
Consider `COC(=O)c1nc(-c2ccc(Cl)cc2)c(F)c(N)c1I`, for which the melting point fell in the range of 114 to 115 °C.
`CCCC(=O)NN=Cc1ccnc2ccccc12`: the melting point stood at 130 °C.
Turning to `COc1cc(Cl)cc(CSCCNC(=O)c2c(Cl)cccc2Cl)c1`, the melting point fell in the range of 83 to 84 °C.
Take `CNC1CCc2[nH]c3c(F)cc(F)cc3c2C1` (centres undefined): the melting point lay in the range of 135 to 138 °C.
Compound `Cn1cccc1C(N)=S` had a melting point of 87 to 88 °C.
`N#Cc1cnn(-c2c(Cl)cc(Cl)cc2Cl)c1N` had a melting point of 208 to 210 °C.
The compound `Cn1cnc(C2C(Cl)=CC=CC2(F)Cc2ccc(Cl)cc2)n1` (centres undefined) displayed a melting point of 78.5 to 80.5 °C.
